# Measured values: US20050245537A1, “Use of compounds having ccr antagonism” (priority 2002, published 2005)
# Tested on: Mouse Skin Graft Rejection Model
# Experiment: Mouse skin graft rejection model
# Type: in vivo
# Excerpt: Effects of a Compound with Respect to a Mouse Skin Graft Rejection Model
structure (smiles),measurement,setting,value
"Cc1ccc(-c2ccc3c(c2)C=C(C(=O)Nc2ccc(C[N+](C)(C)C4CCOCC4)cc2)CCC3)cc1.[Cl-] [N,N-dimethyl-N-(4-[[[2-(4-methylphenyl)-6,7-dihydro-5H-benzocyclohepten-8-yl]carbonyl]amino]benzyl]tetrahydro-2H-pyran-4-ammonium chloride]",graft rejection suppression effect,"10 mg/kg subdermally once a day, P<0.05 vs. control, log-rank test",significant
same,number of days of skin graft life,"donor mouse B6-CH-2^bm12 abdominal skin grafted onto recipient mouse (B6/129), 10 mg/kg subdermally once a day from the day of grafting, n=7, control group 13.0±2.8 days (n=6)",19.6 ± 4.4 days
